Results on 17 compounds are retold here after article PMC8224453, “A New PqsR Inverse Agonist Potentiates Tobramycin Efficacy to Eradicate Pseudomonas aeruginosa Biofilms” (Advanced Science, 2021).

The structures appear in SMILES notation. ≈ marks a conversion by molar mass, not a printed value. Where two headings read alike, the source gives them in different places.

The IC50 is the midpoint of a concentration-inhibition curve. The term kinetic solubility denotes the concentration staying in solution when a stock, usually in DMSO, is diluted into the medium.

Series [1] concerns the target T1, PqsR (Pseudomonas aeruginosa, UniProt Q9I4X0).
T1 construct: which expresses PqsR and the β-galactosidase LacZ under the control of the pqsA promoter; expressed in transfected cells; host or cells: E. coli DH5α carrying plasmid pEAL08-2
The series is described as follows: PqsR β-galactosidase reporter-gene assay in E. coli DH5α. In kind it is cell-based. To be noted: for IC50 PqsR: E. coli reporter-gene assay, result in words. On the procedure: 3. Primary Activity Assays
The inverse agonistic/antagonistic activity of potential PqsR ligands was evaluated in a β-galactosidase reporter gene assay in E. coli as previously described.[3] In short, test compounds were co-incubated with E. coli DH5α cells containing the plasmid pEAL08-2,[4] which expresses PqsR and the β-galactosidase LacZ under the control of the pqsA promoter.
The inverse agonistic/antagonistic activity of compounds was measured in the presence of 50 nM PQS. After incubation, galactosidase activity was quantified photometrically and expressed as ratio of controls. The given IC50 values represent the mean of at least two independent experiments using at least eight different concentrations of test compound with n = 4. Non-linear regression analysis was performed using OriginPro 2020. […]

Series [2] deals with pyocyanin production in PA14 wt. The series is described as follows: Pyocyanin assay in PA14 wt. The format is cell-based. To be noted: Pseudomonas aeruginosa, PA14, read-out: IC50 pyocyanin. How it is done:
The pyocyanin inhibitory effect of the synthesized compounds and the compound (4) loaded SqNPs on PA14 wt were investigated by pyocyanin assay as described in previous work.[2,5] Briefly, PA14 wt was grown in PPGAS medium, overnight, at 37 °C, shaking at 200 rpm. The bacterial suspension was then centrifuged at 7.450 g, washed twice and diluted to a final OD600 (absorption at 600 nm) of 0.02 (2∙10^7 CFU/mL) in fresh PPGAS. 1.5 mL of the […]
(1 picture or pasted object on this page, not shown here) […]
culture was distributed in each well of the 24 well-plate. The free synthesized QSI prepared in DMSO, compound (4) loaded SqNPs were supplemented to bacteria-containing wells (1:100 dilutions). PA14 wt treated with either PBS or drug-free SqNPs (200 μg/mL) served as controls. Following 16 h incubation under aerobic conditions, pyocyanin in 900 μL of bacteria culture was extracted with chloroform and re-extracted with 0.2 M HCl. Pyocyanin production level was measured as the absorption at 520 nm, which was normalized to cell growth measured as OD600. 0.2 M HCl served as blank samples. Three independent experiments were conducted in triplicate. Non-linear regression analysis was performed using […]
(4) loaded SqNPs on PA14 wt. The pyocyanin inhibitory efficacy was improved by a factor of […]
It is noted that as reported in our prior
Figure S2. The production of pyocyanin levels compared to control PA14 wide type (wt) of the samples treated with 200 μg/mL drug free SqNPs. Three independent experiments were conducted in triplicate. […]
(also on this page, place not known: ( 4) -containing -free bacteria re -extracted compo und ( 4) (IC 50 nM ) (IC 50 nM ). drug P A14 5,6,7,8 -tetradeutero-2-heptyl-4(1H)-quinolone standa rd -40 -20 0 20 40 60 80 100 120 0.005 0.05 0.5 pyo production inhibition [%] Compound concentration loaded SqNPs [µM] IC50 = 100 ± 0.018 [nM])

Series [3] is described as follows: Kinetic turbidimetric solubility assay. In kind it is physicochemical. To be noted: PBS, aqueous buffer, kinetic from dmso stock, read-out: Kinetic solubility S kin. On the procedure: 5.4. Kinetic Turbidimetric Solubility Assay
The desired compounds were sequentially diluted in DMSO in a 96-well plate. A 3 µL of each well were transferred into another three 96-well plates, followed by addition of 147 µL of PBS. Plates were shaken for 5 min at 600 rpm at room temperature (r.t.), and the absorbance at 620 nm was measured. Absorbance values were normalized by blank […]
subtraction and plotted using GraphPad Prism 8.4.2 (GraphPad Software, San Diego, CA, […]

Series [4] can be described thus: Metabolic stability half-life (matrix not given). In kind it is in vitro ADME. To be noted: matrix not stated; read-out: metabolic stability half-life t 1/2. On the procedure: First, we evaluated the most promising compounds considering in vitro pharmacokinetic properties such as solubility and metabolic stability. […] Compounds 4 and 19 were moderately stable with half‐lives of 10 and 19 min, respectively.

For series [5], the target named is T1, PqsR. The following applies: read-out: IC50 (PqsR); Figure 1B, earlier hits; cited from earlier work.

T1 sequence (Q9I4X0 whole entry): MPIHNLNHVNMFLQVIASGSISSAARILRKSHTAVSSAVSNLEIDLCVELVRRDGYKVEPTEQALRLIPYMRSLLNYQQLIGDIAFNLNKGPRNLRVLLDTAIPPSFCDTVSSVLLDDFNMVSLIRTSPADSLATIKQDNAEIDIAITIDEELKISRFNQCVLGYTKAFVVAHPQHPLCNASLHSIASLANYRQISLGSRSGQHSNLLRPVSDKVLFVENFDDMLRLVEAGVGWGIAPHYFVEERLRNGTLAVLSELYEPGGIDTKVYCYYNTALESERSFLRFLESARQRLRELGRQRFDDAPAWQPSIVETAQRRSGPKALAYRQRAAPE

Regarding `FC(F)(F)Oc1ccc(-n2cc(CNc3ccnc(C(F)(F)F)c3)nn2)cc1` [Compound 12], the IC50 is 30 nM against PqsR [1] and 1180 nM in series [2].

Consider `FC(F)(F)c1cc(NCc2cn(-c3ccc(Cl)cc3)nn2)ccn1` [Compound 9], for which the IC50 at PqsR [1] was found to be 79 nM; in series [2], 7730 nM.

On to `Nc1cc(NCc2cn(-c3ccc(Oc4ccccc4)cc3)nn2)cc(C(F)(F)F)n1` [Compound 20], for which, in series [2], the IC50 was determined as 351 nM. The kinetic solubility at 5 min in series [3] worked out at 13 µM (≈ 5.54 µg/mL).

On to `Fc1ccccc1-n1cc(CNc2ccnc(C(F)(F)F)c2)nn1` [Compound 6], for which the “IC50 PqsR” value against PqsR [1] is “inactive”. In series [2], the IC50 is above 10000 nM.

With `Fc1ccc(-n2cc(CNc3ccnc(C(F)(F)F)c3)nn2)cc1` [Compound 3], the values for the IC50 (at PqsR [1]; in series [2]) were 196 nM and above 5000 nM, respectively.

Regarding `FC(F)(F)c1cc(NCc2cn(-c3ccccc3Cl)nn2)ccn1` [Compound 7], the “IC50 PqsR” value against PqsR [1] is “inactive”. In addition, the IC50 in series [2] was above 5000 nM.

For the compound `FC(F)(F)c1cc(NCc2cn(-c3ccc(Oc4ccccc4)c(Cl)c3)nn2)ccn1` [Compound 19], the values for the IC50 (at PqsR [1]; in series [2]) were 12 nM and 181 nM, respectively. For the same compound, in series [4], the half-life was 19 min.

Take `Oc1ccc(-n2cc(CNc3ccnc(C(F)(F)F)c3)nn2)cc1` [Compound 10]: the “IC50 PqsR” value on PqsR [1] is “inactive ^a)”.

On to `FC(F)(F)c1cc(NCc2cn(-c3ccc(Cl)c(Cl)c3)nn2)ccn1` [Compound 16], for which the IC50 was 24 nM against PqsR [1] and 354 nM in series [2].

Take `FC(F)(F)Oc1ccc(-n2cc(CNc3ccnc(C(F)(F)F)c3)nn2)cc1Cl` [Compound 18]: the values for the IC50 (against PqsR [1]; in series [2]) were 15 nM and 438 nM, respectively. Besides, in series [3], the kinetic solubility at 5 min was found to be 31.3 µM (≈ 13.7 µg/mL). For the same compound, the half-life in series [4] was found to be 55 min.

As for `FC(F)(F)c1cc(NCc2cn(-c3cccc(Cl)c3)nn2)ccn1` [Compound 8], the figures for the IC50 (against PqsR [1]; in series [2]) were 123 nM and above 2500 nM, respectively.

As for `COc1ccc(-n2cc(CNc3ccnc(C(F)(F)F)c3)nn2)cc1` [Compound 11], the half-inhibitory concentration (IC50) was found to be 81 nM against PqsR [1] and 2500 nM in series [2].

With `Fc1cccc(-n2cc(CNc3ccnc(C(F)(F)F)c3)nn2)c1` [Compound 5], the “IC50 PqsR” value against PqsR [1] was “inactive”. In addition, the half-inhibitory concentration (IC50) in series [2] was above 5000 nM.

With `FC(F)(F)c1ccc(-n2cc(CNc3ccnc(C(F)(F)F)c3)nn2)cc1` [Compound 13], the IC50 was 129 nM against PqsR [1] and above 5000 nM in series [2].

As to `Nc1cccc(C(F)(F)F)n1` [Compound 1], the half-inhibitory concentration (IC50) at PqsR [5] was 33100 nM.

In the case of `FC(F)(F)c1cc(NCc2cn(-c3ccc(Nc4ccccc4)cc3)nn2)ccn1` [Compound 15], the IC50 against PqsR [1] is 31 nM; in series [2], 1060 nM.

Regarding `N#Cc1ccc(-n2cc(CNc3ccnc(C(F)(F)F)c3)nn2)cc1` [Compound 14], the results for the IC50 (against PqsR [1]; in series [2]) were 655 nM and above 10000 nM, respectively.
